Article PMC4109680, “Identification and Preclinical Pharmacology of the γ-Secretase Modulator BMS-869780” (International Journal of Alzheimer's Disease, 2014)

Tests used:
rat brain Aβ = experiment: Rat brain Aβ peptides after oral dose (4-plex immunoassay and Aβ1-x); assay type: in vivo; settings: 10 mg/kg, 5 hours
Description: (§1) IC50 determinations for Aβ1-42 and Aβ1-40 in H4-APPsw cultures in 384-well format were determined using homogeneous time-resolved fluorescence immunoassays as previously described. The principle of these assays is illustrated in Figures 1(c) and 1(d). In other experiments using H4-APPsw cultures, Aβ was quantified by ELISA; for Aβ1-42 the combination of monoclonal antibodies was 26D6 and 565-HRP; for Aβ1-40 it was TSD and 26D6-HRP, and for Aβ1-x it was 4G8 and 26D6-HRP. In some experiments a novel 4-plex Aβ electrochemiluminescence immunoassay was used (Mesoscale Discovery catalog number N45ZA-1). Briefly, the 4-plex was carried out in 96-well format, with 4 separate spots of capture antibodies in each well. The 96-well plates were prepared by the manufacturer, with spots of monoclonal antibodies for Aβ1-42, Aβ1-40, and Aβ1-38, and an additional fourth spot of streptavidin in each well. Plates were initially incubated with blocking buffer (5% BSA in phosphate buffered saline, 200 μL per well) for 2 hours at ambient temperature and then with D2A6H-biotin conjugate (50 ng/mL in 1% BSA, phosphate buffered saline, 25 μL per well) for 1 hour. Plates were then rinsed with phosphate buffered saline before addition of experimental samples for determination of Aβ1-42, Aβ1-40, Aβ1-38, and Aβ1-37 levels, following the manufacturer's instructions as for the Aβ 3-plex kit (catalog number K15148E-1). Rat brain extracts for use in the 4-plex assay were made in 0.2% diethylamine, as previously described. For detection of rat Aβ peptides in the 4-plex (Figure 5), 252Q6-sulfo-tag conjugate was used, and for detection of human Aβ peptides from cell cultures 6E10-sulfo-tag conjugate was used. For Aβ in transiently transfected PS1/PS2 dKO fibroblasts, Aβ1-42 was quantified using an ELISA kit (WACO), and Aβ1-40 was quantified by ELISA as described above for H4-APPsw cultures. For triple transgenic mice (3xTg; [63]), human transgenic Aβ1-42 was assayed in brain homogenates using an ELISA kit (WACO). For the rat and mouse experiments illustrated in Figures 7 and 8, brain samples were prepared by solid phase extraction, and endogenous rat brain Aβ1-42 and Aβ1-40 were quantified by ELISA as previously described for wild type mice. For brain extracts made using solid phase extraction, calibration of Aβ was relative, based on the approximately linear response of the assay in the range tested. For brain extracts made in 0.2% diethylamine, Aβ1-42, Aβ1-40, Aβ1-38, and Aβ1-37 concentrations in brain and cell culture samples were determined by fitting the results of immunoassays against calibration curves derived from a range of dilutions of the corresponding synthetic peptides on each assay plate using a quadratic curve fit (Graphpad Prizm 5.0). Aβ1-x was calibrated in the same way against synthetic Aβ1-40 peptide. Results were expressed in units of pM, corrected for sample dilution.
Rats were given oral doses of BMS-869780, and levels of brain Aβ, βCTF, and αCTF were determined 24 hours later. For comparison, BMS-698861 was dosed in a separate experiment and samples were taken 5 hours later. […] (c) Rat brain βCTF was detected by western blotting of immunoprecipitates from samples of the same rat brains used for Aβ determinations. […] (e) and (f) quantification of western blots shown in (c) and (d), respectively, expressed relative to percent of average level of CTF in vehicle-treated rats. […]

[1] = system: rat brain APP-CTFβ and APP-CTFα; experiment: Immunoprecipitation and western blot of APP-CTFβ and APP-CTFα from rat brain; assay type: in vivo; settings: 10 mg/kg, 5 hours
Description: Rats were given oral doses of BMS-869780, and levels of brain Aβ, βCTF, and αCTF were determined 24 hours later. For comparison, BMS-698861 was dosed in a separate experiment and samples were taken 5 hours later. (a) Brain levels of Aβ1-42 (red), Aβ1-40 (green), Aβ1-38 (blue), and Aβ1-37 (purple) are shown as bars stacked upon one another. The total height of each bar therefore represents the sum of the four peptides. (b) Aβ1-42 (red—left Y axis) and Aβ1-x (grey—right Y axis). The same results for Aβ1-42 are plotted in both (a) and (b). (c) Rat brain βCTF was detected by western blotting of immunoprecipitates from samples of the same rat brains used for Aβ determinations. V, vehicle groups; results from rats dosed with 1.9, 22, 100, and 235 mg/kg of BMS-869780 and 10 mg/kg BMS-698861 (GSI) are indicated. (d) Western blots of immunoprecipitated αCTF from the same rat brain samples. (e) and (f) quantification of western blots shown in (c) and (d), respectively, expressed relative to percent of average level of CTF in vehicle-treated rats. Actual doses of BMS-869780 were determined by analysis of concentrations in left-over dosing solutions. […]

[2] = system: brain Aβ1-42, brain Aβ1-40, plasma Aβ1-40; experiment: Rat intraperitoneal dose response, brain and plasma Aβ 5 hours after dosing; assay type: in vivo; settings: 30 mg/kg, 5 hours
Description: as §1
Figure 7 BMS-869780 dose response and evaluation of residual Aβ levels in rat brain. (a) Groups of rats received intraperitoneal (IP) injections of vehicle or BMS-869780 at doses of 100, 30, 10, 3, 1, and 0.3 mg/kg. Additional rats were dosed with GSI BMS-698861 at 30 mg/kg as a positive control for Aβ-lowering. Group sizes were seven rats for each dose of BMS-869780 and 14 rats for vehicle and GSI dose groups. Brain and plasma were harvested 5 hours after dosing. Brain Aβ1-42 (green), brain Aβ1-40 (blue), brain Aβ1-x (black), and plasma Aβ1-40 (red) were determined. Values are expressed as % relative to vehicle group mean. Whiskers represent standard error. ⊗Aβ1-x was not determined in the groups dosed at 3, 1, and 0.3 mg/kg. (b) Brain Aβ1-40 was plotted against brain Aβ1-42 for each rat dosed with BMS-869780 (black ▼) and for each rat dosed with vehicle (grey ●). Values are expressed as % relative to vehicle group mean. Whiskers represent standard error. […]

Notch/Aβ1-40 = system: Notch/Aβ1-40; set-up: method as in PMID 24900185; settings: cited from earlier work
[3] = system: Aβ1-42 in cerebrospinal fluid; set-up: method as in PMID 18090435; settings: clinical trials, even at high doses; cited from earlier work
brain Aβ1-42 = system: brain Aβ1-42; set-up: method as in PMID 12897211, PMID 17650315; settings: rodents; cited from earlier work

NC(=O)[C@@H](CC1CC1)N(Cc1ccc(-c2ncon2)cc1F)S(=O)(=O)c1ccc(Cl)cc1 [BMS-698861, reference compound]
rat brain Aβ1-40, Aβ1-42, Aβ1-38, Aβ1-37 and Aβ1-x (rat brain Aβ): decreased levels of all the peptides | rat brain APP-CTFβ and APP-CTFα levels [1]: increased several-fold | Aβ lowering in all Aβ assays including Aβ1-x [2]: robust lowering in all Aβ assays

NC(=O)[C@@H](CCC(F)(F)F)N(Cc1ccc(-c2ncon2)cc1F)S(=O)(=O)c1ccc(Cl)cc1 [avagacestat]
Notch/Aβ1-40 IC50 ratio (Notch/Aβ1-40): 193

CC(C(=O)O)c1ccc(-c2ccccc2)c(F)c1 (stereo not drawn) [flurbiprofen]
effect on Aβ1-42 in cerebrospinal fluid [3]: no effect on Aβ1-42 in cerebrospinal fluid | effect on brain Aβ1-42 (brain Aβ1-42): lower brain Aβ1-42 in rodents
